Experimental data from the supplement of paper PMC13380429.

What was measured:
HepG2 [1] = assay: drug sensitivity score (DSS) for viability; higher = more toxic; extreme values may be limits of the assay; conditions: 72 h
Caco-2 [2] = assay: as above; conditions: 72 h
Calu-3 [3] = assay: as above; conditions: 72 h
Vero E6 [4] = assay: as above; conditions: 72 h
U2OS [5] = assay: as above; conditions: 72 h
[6] = test system: A549-ACE2 infected with SARS-CoV-2; assay: morphology score (similarity to uninfected cells); higher = more like uninfected cells; conditions: 24 h
A549-ACE2 [7] = assay: drug-induced phospholipidosis relative to tamoxifen; higher = more phospholipidosis
[8] = test system: A549-ACE2 infected with SARS-CoV-2; assay: SARS-CoV-2 infection rate relative to DMSO; higher = more infection; conditions: 24 h
HepG2 [9] = assay: relative viability EC50 (midpoint between 100% and the lowest measured viability); higher = less toxic; conditions: 72 h
Calu-3 [10] = assay: as above; conditions: 72 h
Vero E6 [11] = assay: as above; conditions: 72 h
U2OS [12] = assay: as above; conditions: 72 h
A549-ACE2 [13] = assay: phospholipidosis EC50; higher = less potent phospholipidosis inducer
[14] = test system: A549-ACE2 infected with SARS-CoV-2; assay: cell count relative to DMSO; higher = less toxic; conditions: 24 h
HepG2 [15] = assay: cell viability relative to DMSO; higher = less toxic; conditions: 72 h
Caco-2 [16] = assay: as above; conditions: 72 h
Calu-3 [17] = assay: as above; conditions: 72 h
Vero E6 [18] = assay: as above; conditions: 72 h
U2OS [19] = assay: as above; conditions: 72 h
Caco-2 [20] = assay: relative viability EC50 (midpoint between 100% and the lowest measured viability); higher = less toxic; conditions: 72 h

CCN(CC)CCOc1ccc(/C(=C(\Cl)c2ccccc2)c2ccccc2)cc1 [clomifene]
Conditions	drug sensitivity score	relative viability EC50 [µM]
Caco-2 [2]	2.5	–
Calu-3 [3]	6.5	–
Calu-3 [10]	–	2.27
HepG2 [1]	4.6	–
HepG2 [9]	–	2.75
U2OS [5]	0.5	–
U2OS [12]	–	> 10
Vero E6 [4]	0.7	–
Vero E6 [11]	–	> 10

Conditions	SARS-CoV-2 infection rate [%]	cell count [%]	cell viability [%]	morphology score	phospholipidosis EC50 [µM]
A549-ACE2 [13], 24 h	–	–	–	–	0.972
A549-ACE2 [13], 48 h	–	–	–	–	3
A549-ACE2 [13], 72 h	–	–	–	–	4.75
Caco-2 [16], 1 nM	–	–	84.4	–	–
Caco-2 [16], 10 nM	–	–	100	–	–
Caco-2 [16], 100 nM	–	–	99.1	–	–
Caco-2 [16], 1000 nM	–	–	96.4	–	–
Caco-2 [16], 10000 nM	–	–	61.1	–	–
Calu-3 [17], 1 nM	–	–	100	–	–
Calu-3 [17], 10 nM	–	–	101	–	–
Calu-3 [17], 100 nM	–	–	102	–	–
Calu-3 [17], 1000 nM	–	–	90.4	–	–
Calu-3 [17], 10000 nM	–	–	10.8	–	–
HepG2 [15], 1 nM	–	–	90.5	–	–
HepG2 [15], 10 nM	–	–	89.9	–	–
HepG2 [15], 100 nM	–	–	105	–	–
HepG2 [15], 1000 nM	–	–	96	–	–
HepG2 [15], 10000 nM	–	–	26.5	–	–
U2OS [19], 1 nM	–	–	96.1	–	–
U2OS [19], 10 nM	–	–	99.4	–	–
U2OS [19], 100 nM	–	–	96.3	–	–
U2OS [19], 1000 nM	–	–	103	–	–
U2OS [19], 10000 nM	–	–	79.3	–	–
Vero E6 [18], 1 nM	–	–	94.7	–	–
Vero E6 [18], 10 nM	–	–	95.5	–	–
Vero E6 [18], 100 nM	–	–	91.9	–	–
Vero E6 [18], 1000 nM	–	–	101	–	–
Vero E6 [18], 10000 nM	–	–	77.4	–	–
[6], 0.1 µM	–	–	–	-0.09	–
[6], 0.3 µM	–	–	–	0.35	–
[6], 1 µM	–	–	–	0.5	–
[6], 3 µM	–	–	–	0.8	–
[8], 0.1 µM	102	–	–	–	–
[8], 0.3 µM	84	–	–	–	–
[8], 1 µM	75	–	–	–	–
[8], 3 µM	31	–	–	–	–
[14], 0.1 µM	–	101	–	–	–
[14], 0.3 µM	–	106	–	–	–
[14], 1 µM	–	113	–	–	–
[14], 3 µM	–	117	–	–	–

drug-induced phospholipidosis [%], A549-ACE2 [7]
Conditions	0.3 µM	0.833333 µM	3.33333 µM	6.66667 µM	10 µM	30 µM
24 h	9.43	34.4	86	104	115	47.6
48 h	7.92	29.7	72.8	101	120	–
72 h	9.07	23.5	62.7	94.3	144	–

OCCN1C[C@H](O)[C@@H](O)[C@H](O)[C@H]1CO [miglitol]
Conditions	drug sensitivity score	relative viability EC50 [µM]
Caco-2 [2]	0	–
Caco-2 [20]	–	> 10
Calu-3 [3]	0	–
Calu-3 [10]	–	> 10
HepG2 [1]	0	–
HepG2 [9]	–	> 10
U2OS [5]	0	–
U2OS [12]	–	> 10

Conditions	SARS-CoV-2 infection rate, [8] [%]	cell count, [14] [%]	cell viability, Caco-2 [16] [%]	cell viability, Calu-3 [17] [%]	cell viability, HepG2 [15] [%]	cell viability, U2OS [19] [%]	morphology score, [6]
1 nM	–	–	98.8	97.8	94.6	105	–
10 nM	–	–	99.2	95.7	114	99	–
100 nM	–	–	96.1	95.1	89.6	102	–
0.3 µM	94	106	–	–	–	–	0.36
1000 nM	–	–	101	110	103	98.5	–
3 µM	102	100	–	–	–	–	0.01
10 µM	103	100	–	–	–	–	0.02
10000 nM	–	–	94.7	96.2	101	103	–
30 µM	111	89	–	–	–	–	-0.07

drug-induced phospholipidosis [%], A549-ACE2 [7]
Conditions	0.3 µM	0.833333 µM	3.33333 µM	6.66667 µM	10 µM	30 µM
24 h	3.38	-3.48	-1.06	-1.04	-2.08	-1.27
48 h	2.53	-2.84	1.36	1.25	2.47	2.29
72 h	3.37	-2.2	1.06	-0.466	0.978	2.7

CC(NCCC(c1ccccc1)c1ccccc1)c1ccccc1 (configuration not stated) [fendiline]
Conditions	drug sensitivity score	relative viability EC50 [µM]
Caco-2 [2]	1.7	–
Calu-3 [3]	2.6	–
Calu-3 [10]	–	3.42
HepG2 [1]	2.2	–
U2OS [5]	0.3	–
U2OS [12]	–	> 10
Vero E6 [4]	0	–
Vero E6 [11]	–	> 10

Conditions	SARS-CoV-2 infection rate [%]	cell count [%]	cell viability [%]	morphology score	phospholipidosis EC50 [µM]
A549-ACE2 [13], 24 h	–	–	–	–	4.59
A549-ACE2 [13], 48 h	–	–	–	–	6.53
A549-ACE2 [13], 72 h	–	–	–	–	6.61
Caco-2 [16], 1 nM	–	–	97.6	–	–
Caco-2 [16], 10 nM	–	–	99.8	–	–
Caco-2 [16], 100 nM	–	–	93.9	–	–
Caco-2 [16], 1000 nM	–	–	98.1	–	–
Caco-2 [16], 10000 nM	–	–	67.6	–	–
Calu-3 [17], 1 nM	–	–	91.6	–	–
Calu-3 [17], 10 nM	–	–	96.3	–	–
Calu-3 [17], 100 nM	–	–	103	–	–
Calu-3 [17], 1000 nM	–	–	102	–	–
Calu-3 [17], 10000 nM	–	–	46.7	–	–
HepG2 [15], 1 nM	–	–	110	–	–
HepG2 [15], 10 nM	–	–	97.8	–	–
HepG2 [15], 100 nM	–	–	102	–	–
HepG2 [15], 1000 nM	–	–	94.2	–	–
HepG2 [15], 10000 nM	–	–	70.1	–	–
U2OS [19], 1 nM	–	–	99.2	–	–
U2OS [19], 10 nM	–	–	106	–	–
U2OS [19], 100 nM	–	–	93.1	–	–
U2OS [19], 1000 nM	–	–	99.6	–	–
U2OS [19], 10000 nM	–	–	84.2	–	–
Vero E6 [18], 1 nM	–	–	96.5	–	–
Vero E6 [18], 10 nM	–	–	98.6	–	–
Vero E6 [18], 100 nM	–	–	97.5	–	–
Vero E6 [18], 1000 nM	–	–	99.4	–	–
Vero E6 [18], 10000 nM	–	–	88.9	–	–
[6], 0.3 µM	–	–	–	-0.14	–
[6], 3 µM	–	–	–	0.77	–
[6], 10 µM	–	–	–	0.9	–
[6], 30 µM	–	–	–	0.08	–
[8], 0.3 µM	100	–	–	–	–
[8], 3 µM	47	–	–	–	–
[8], 10 µM	13	–	–	–	–
[8], 30 µM	45	–	–	–	–
[14], 0.3 µM	–	98	–	–	–
[14], 3 µM	–	110	–	–	–
[14], 10 µM	–	119	–	–	–
[14], 30 µM	–	43	–	–	–

drug-induced phospholipidosis [%], A549-ACE2 [7]
Conditions	0.3 µM	0.833333 µM	3.33333 µM	6.66667 µM	10 µM	30 µM
24 h	3.14	1.17	27.5	62.8	85	85.8
48 h	2.47	2.24	19.7	62.3	88.8	–
72 h	1.95	-3.79	18.1	60.3	87.3	–

CN(C)CC/C=C1/c2ccccc2COc2ccccc21 [doxepin]
Conditions	drug sensitivity score	relative viability EC50 [µM]
Caco-2 [2]	0	–
Caco-2 [20]	–	> 10
Calu-3 [3]	0	–
Calu-3 [10]	–	> 10
HepG2 [1]	0	–
HepG2 [9]	–	> 10
U2OS [5]	0	–
U2OS [12]	–	> 10
Vero E6 [4]	0	–
Vero E6 [11]	–	> 10

cell viability [%]
Conditions	Caco-2 [16]	Calu-3 [17]	HepG2 [15]	U2OS [19]	Vero E6 [18]
1 nM	90.4	89	103	94.9	100
10 nM	100	101	85.4	101	96.8
100 nM	97.4	97.9	115	98.7	96.7
1000 nM	102	97.7	97.4	102	91.1
10000 nM	99.6	89.9	99.3	103	106
